Series [1] addresses T1, Wild type EGFR (Homo sapiens, UniProt P00533).
T1 construct: purchased Invitrogen PV3872
Briefly: Kinase activity test (FRET), wild type EGFR. The format is biochemical. The following applies: wild type EGFR; for IC50: read-out: Inhibitory activity of EGFR on kinase (IC50, nM) WT. Here is the method: (§1) EGFR-TK catalyses transfer of one phosphate group of adenosine triphosphate (ATP) to polypeptide substrate, poly(Glu, Tyr)4:1, which is labeled with two fluorescent groups coumarin and fluorescein.
(§2) 2.5 μL of Test Compounds, 5 μL Kinase/Peptide Substrate Mixture, 2.5 μL ATP Solution were added into a 384-well plate, and the 10 μL of reaction system was shaken for 30 s and incubated at room temperature for 1 h. 5 μL of Development Solution was added and the 15 μL of reaction system was shaken for 30 s, and incubated at room temperature for 1 h. […] The inhibitory rates of the compounds at 7 concentration gradients were determined and the IC50 value for each compound was calculated by Origin 8.0 fitting curve.
(§3) 10 concentration gradients from 5.1×10^−11 mol/L to 1.0×10^−6 mol/L were set for all compounds to be tested.
(§4) Compounds were diluted in DMSO for three times from 5.1×10^−9 M to 1×10^−4 M. 4 μL of the compound was dissolved in 96 μL of water to obtain a 4× compound solution. […] The 10 μL kinase reaction consisted of 2.5 μL compound solution, 5 μL kinase/peptide mix, 2.5 μL ATP solution. […] 5 μL of phosphorylated peptide solution, instead of the kinase/peptide mixture, was used as a 100% phosphorylation control. […] The plates were thoroughly mixed and incubated at room temperature for 1.5 hours. 5 μL of Development Solution was added into each well and then incubated for another 1 hour at room temperature, unphosphorylated peptides were cleaved during this period. Finally, 5 μL Stop Reagent was added to quench the reaction. The plates were measured with EnVision Multilabel Reader (Perkin Elmer). The experimental data were calculated using GraphPad Prism version 4.0. Each experiment was repeated more than 3 times.

Series [2] deals with T2, EGFR-L858R/T790M (Homo sapiens, UniProt P00533, L858R/T790M).
T2 construct: purchased Invitrogen PV4879
The experiment in a line: Kinase activity test (FRET), EGFR T790M/L858R. Type of series: biochemical. The note with it: EGFR T790M/L858R; for IC50: read-out: Inhibitory activity of EGFR on kinase (IC50, nM) T790M/L858R. As for the experimental part:
as §1, §2, §3, §4

The test system of series [3] is H1975 cells (EGFR L858R/T790M). Briefly: Inhibitory activity on cell proliferation, H1975. Type of series: cell-based. The note with it: Homo sapiens, NCI-H1975; H1975, 72 hours; read-out: Inhibitory activity on proliferation of cells (IC50, μM) H1975. Here is the method:
(§5) Cell proliferation activity was assessed by MTS assay. Cells were exposed to processing conditions for 72 hours and the number of cells used in each experiment for each cell line was adjusted based on absorbance values (absorbance values at 490 nm, 1.3-2.2). Six concentration gradients (0.1 nM-10 μM) were set for the compounds to be tested, wherein at least 6 sets of parallel controls for each concentration were used.
(§6) H1975, A431 cells were cultured in corresponding media, and cells were passaged at least twice after resuscitation and then used for experiments. Cells at Log phase were trypsinized and resuspended in culture medium. H1975 (1000 cells per well), A431 (2000 cells per well) were seeded in 96-well plates in a volume of 100 μL; and 6 sets of parallel controls and 7 columns were set. The plate was placed in a 37° C. 5% CO2 incubator overnight. Compounds were dissolved in DMSO to a concentration of […], and then the concentration was gradually diluted to 10 μM, 1 μM, 0.1 μM, 0.01 μM, 0.001 μM, 0.0001 μM per liter, respectively. 2 μL of the compound solution was added to 998 μL of medium, and the mixture was thoroughly mixed. 100 μL of the mixture was added to a 96-well plate. […] After culturing for 68 hours, 20 μL of MTT (5 mg/mL) was added. After 4 hours, the supernatant was discarded and 150 μL of DMSO was added. After shaking for 10 minutes, the plate was read with Synergy HT (Bio TeK) (OD490). Data were calculated using GraphPad Prism version 4.0 and IC50 values were obtained using a non-linear regression model of dose response curve.

The subject of series [4] is A431 cells (EGFR wild type). The experiment in a line: Inhibitory activity on cell proliferation, A431. Type of series: cell-based. The note with it: Homo sapiens, A-431; A431, 72 hours; read-out: Inhibitory activity on proliferation of cells (IC50, μM) A431. Here is the method: as §5, §6
A short description of series [5]: Determination of solubility in water (PBS 20 mM, pH 6.8). Type of series: physicochemical. The following applies: PBS buffer, aqueous buffer, thermodynamic from solid; pH 6.8, 20 mM PBS; read-out: Solubility (pH 6.8, g/mL). As for the experimental part: The suspension was filtered through a 0.22 μm PVDF filter, and then diluted to an appropriate concentration with methanol (v=50%) and PBS (v=50%), and the absorbance was measured by a UV spectrophotometer. About 3 mg of compound was accurately weighed, and methanol was added for preparing a stock solution of 1 mg/mL. The above stock solution was taken and prepared into a solution at concentrations of 0.05, 0.04, 0.03, 0.02 and 0.01 mg/mL, respectively, PBS solution (v=50%) was added and the absorbance value was measured. Concentration c (mg/mL) as horizontal ordinate vs absorbance A as longitudinal coordinate was plotted, and a line was fitted for obtaining a standard curve (correlation coefficient greater than 0.998). The solubility of a compound in water was calculated from the standard curve.

pIC50: −log10 of the molar value. Converted amounts (≈) assume the structure as drawn. Read-outs that look alike come from different tables or passages of the source.

T1 sequence (P00533 25-1210): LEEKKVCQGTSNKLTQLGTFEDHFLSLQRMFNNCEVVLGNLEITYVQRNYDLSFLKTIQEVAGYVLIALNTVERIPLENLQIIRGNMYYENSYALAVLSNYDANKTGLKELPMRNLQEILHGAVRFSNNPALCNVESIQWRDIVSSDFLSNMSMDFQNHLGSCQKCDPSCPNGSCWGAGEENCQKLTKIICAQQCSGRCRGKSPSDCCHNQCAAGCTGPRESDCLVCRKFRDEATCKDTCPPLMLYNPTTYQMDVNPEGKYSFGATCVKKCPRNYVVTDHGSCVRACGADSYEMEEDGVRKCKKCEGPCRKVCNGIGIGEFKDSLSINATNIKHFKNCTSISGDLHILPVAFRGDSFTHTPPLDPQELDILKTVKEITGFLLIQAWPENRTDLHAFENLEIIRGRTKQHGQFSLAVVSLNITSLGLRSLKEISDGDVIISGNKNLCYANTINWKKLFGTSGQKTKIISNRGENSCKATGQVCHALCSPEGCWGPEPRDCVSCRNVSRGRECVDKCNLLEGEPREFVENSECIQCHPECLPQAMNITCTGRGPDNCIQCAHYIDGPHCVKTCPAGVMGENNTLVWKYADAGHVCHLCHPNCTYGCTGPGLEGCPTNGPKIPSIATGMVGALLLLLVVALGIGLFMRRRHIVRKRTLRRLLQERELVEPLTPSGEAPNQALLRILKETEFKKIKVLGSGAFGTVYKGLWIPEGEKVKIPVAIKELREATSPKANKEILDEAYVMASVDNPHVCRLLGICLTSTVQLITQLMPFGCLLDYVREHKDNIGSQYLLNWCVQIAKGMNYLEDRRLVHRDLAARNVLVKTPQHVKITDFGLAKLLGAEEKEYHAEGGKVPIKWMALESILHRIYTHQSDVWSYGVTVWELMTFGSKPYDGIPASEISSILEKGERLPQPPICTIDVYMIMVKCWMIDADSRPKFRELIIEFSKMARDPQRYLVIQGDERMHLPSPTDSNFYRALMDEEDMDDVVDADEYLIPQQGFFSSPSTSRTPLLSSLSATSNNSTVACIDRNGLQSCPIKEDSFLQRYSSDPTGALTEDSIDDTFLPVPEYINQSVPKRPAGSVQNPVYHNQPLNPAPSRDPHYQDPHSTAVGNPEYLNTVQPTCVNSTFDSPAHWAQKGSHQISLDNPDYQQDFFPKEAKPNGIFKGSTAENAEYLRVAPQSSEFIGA
T2 sequence (P00533 25-1210 T790M/L858R): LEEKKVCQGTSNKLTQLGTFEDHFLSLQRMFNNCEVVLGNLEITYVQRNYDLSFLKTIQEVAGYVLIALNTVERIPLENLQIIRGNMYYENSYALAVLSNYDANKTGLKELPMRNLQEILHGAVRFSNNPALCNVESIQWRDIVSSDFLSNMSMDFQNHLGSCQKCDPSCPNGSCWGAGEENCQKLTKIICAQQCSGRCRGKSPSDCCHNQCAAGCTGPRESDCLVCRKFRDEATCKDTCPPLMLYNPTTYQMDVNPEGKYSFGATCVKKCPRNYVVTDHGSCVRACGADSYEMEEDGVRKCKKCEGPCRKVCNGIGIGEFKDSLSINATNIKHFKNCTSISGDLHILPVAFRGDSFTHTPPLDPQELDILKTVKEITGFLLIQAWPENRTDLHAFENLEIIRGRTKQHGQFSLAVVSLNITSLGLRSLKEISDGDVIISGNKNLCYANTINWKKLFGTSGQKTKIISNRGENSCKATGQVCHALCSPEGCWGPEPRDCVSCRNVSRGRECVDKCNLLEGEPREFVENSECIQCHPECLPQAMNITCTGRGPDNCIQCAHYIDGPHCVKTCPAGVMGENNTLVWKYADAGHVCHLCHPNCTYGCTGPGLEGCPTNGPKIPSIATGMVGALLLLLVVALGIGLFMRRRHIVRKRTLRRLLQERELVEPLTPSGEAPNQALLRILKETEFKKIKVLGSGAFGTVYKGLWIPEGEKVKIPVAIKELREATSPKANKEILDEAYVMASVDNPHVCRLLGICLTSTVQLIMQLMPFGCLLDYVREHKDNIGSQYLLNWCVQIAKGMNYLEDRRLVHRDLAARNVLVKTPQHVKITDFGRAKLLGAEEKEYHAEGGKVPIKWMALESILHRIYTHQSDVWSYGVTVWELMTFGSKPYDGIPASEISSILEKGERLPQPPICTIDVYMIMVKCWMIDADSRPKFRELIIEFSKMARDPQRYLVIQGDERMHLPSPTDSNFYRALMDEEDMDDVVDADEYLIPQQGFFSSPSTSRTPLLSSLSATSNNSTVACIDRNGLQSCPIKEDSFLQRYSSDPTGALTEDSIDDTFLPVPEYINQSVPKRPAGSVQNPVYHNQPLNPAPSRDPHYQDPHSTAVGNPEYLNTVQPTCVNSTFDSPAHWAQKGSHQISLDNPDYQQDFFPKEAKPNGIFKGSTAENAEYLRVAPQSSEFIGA

On to `C=CC(=O)Nc1cccc(-n2c(=O)cnc3cnc(Nc4ccc(N(C)CCN(C)C)cc4OC)nc32)c1` [Compound 18, N-(3-(2-((4-((2-(dimethylamino)ethyl)(methyl)amino)-2-methoxyphenyl)amino)-7-oxo-8(7H)-pteridinyl)phenyl)acrylamide], for which the IC50 in series [1] amounted to 47 nM; in series [2], 1 nM; in series [3] it was 0.06 µM; in series [4], 1.66 µM. For the same compound, in series [5], the solubility came to 208 µg/mL (≈ 405 µM).

Turning to `C=CC(=O)N1CC[C@H](n2c(=O)c(-c3ccccc3)nc3cnc(Nc4ccc(N5CCN(C)CC5)cc4OC)nc32)C1` [Compound 27, (S)-8-(1-acryloyl-3-pyrrolidinyl)-2-((2-methoxy-4-(4-methyl-1-piperazinyl)phenyl)amino)-6-phenyl-7(8H)-pteridinone], the IC50 amounted to 53.7 nM in series [1], 3.8 nM in series [2], 0.116 µM in series [3] and 1.85 µM in series [4]. Also, the solubility in series [5] was 264 µg/mL (≈ 465 µM).

With `C=CC(=O)N1CC[C@@H](n2c(=O)cnc3cnc(Nc4ccc(N5CCN(C)CC5)cc4OC)nc32)C1` [Compound 2], the pIC50 in series [1] (read-out: Inhibitory activity of EGFR on kinase (IC50) WT) and in series [2] (read-out: Inhibitory activity of EGFR on kinase (IC50) T790M/L858R) was less than 5.00 in each case. Moreover, the IC50 in series [3] was found to be 18.2 µM; in series [4], 89.6 µM. Further, the solubility in series [5] was 11100 µg/mL (≈ 22600 µM).

For the compound `C=CC(=O)N1CCC[C@@H](Cn2c(=O)c(C(C)C)nc3cnc(Nc4ccc(N5CCN(C)CC5)cc4OC)nc32)C1` [Compound 21, (R)-8-((1-acryloyl-3-piperidinyl)methyl)-6-isopropyl-2-((2-methoxy-4-(4-methyl-1-piperazinyl)phenyl)amino)-7(8H)-pteridinone], the IC50 in series [1] was 2880 nM; in series [2], 251 nM; in series [3], 4.49 µM; in series [4] it was greater than 10 µM. Also, the solubility in series [5] amounted to 72.2 µg/mL (≈ 129 µM).

On to `C=CC(=O)N1CCC[C@H](Cn2c(=O)cnc3cnc(Nc4ccc(N5CCN(C)CC5)cc4OC)nc32)C1` [Compound 17], for which the IC50 is 2190 nM in series [1], 191 nM in series [2], 1.42 µM in series [3] and greater than 10 µM in series [4]. In addition, the solubility in series [5] turned out to be 957 µg/mL (≈ 1850 µM).

Regarding `C=CC(=O)Nc1cccc(-n2c(=O)cnc3cnc(Nc4ccc(N5CCN(CCO)CC5)cc4OC)nc32)c1` [Compound 11, N-(3-(2-((4-(4-(2-hydroxyethyl)-1-piperazinyl)-2-methoxyphenyl)amino)-7-oxo-8 (7H)-pteridinyl)phenyl)acrylamide], the IC50 is 2.2 nM in series [1], 7.3 nM in series [2], 0.2 µM in series [3] and 8.09 µM in series [4]. Further, the solubility in series [5] was determined as 48.6 µg/mL (≈ 89.6 µM).

Take `C=CC(=O)N1CCC[C@@H](n2c(=O)cnc3cnc(Nc4ccc(N5CCN(C)CC5)cc4OC)nc32)C1` [Compound 22]: the IC50 is greater than 10000 nM in series [1], 6900 nM in series [2], greater than 10 µM in series [3] and greater than 10 µM in series [4]. The solubility in series [5] stood at 3230 µg/mL (≈ 6410 µM).

For the compound `COc1cc(N2CCN(C)CC2)ccc1Nc1ncc2nc(C(C)C)c(=O)n([C@H]3CCN(C(=O)/C=C/CN(C)C)C3)c2n1` [Compound 28], the IC50 in series [1] is greater than 10000 nM; in series [2], greater than 10000 nM; in series [3], 8.38 µM; in series [4] it was greater than 10 µM. Further, the solubility in series [5] turned out to be 3970 µg/mL (≈ 6730 µM).

As to `C=CC(=O)Nc1cccc(-n2c(=O)c(-c3ccccc3)nc3cnc(Nc4ccc(N(C)CCN(C)C)cc4OC)nc32)c1` [Compound 20, N-(3-(2-((4-((2-(dimethylamino)ethyl)(methyl)amino)-2-methoxyphenyl)amino)-7-oxo-6-phenyl-8(7H)-pteridinyl)phenyl)acrylamide], the IC50 in series [1] came out at 15 nM; in series [2], 1.3 nM; in series [3] it was 0.04 µM; in series [4] it was 6 µM. Further, the solubility in series [5] came out at 7.4 µg/mL (≈ 12.5 µM).

As to `C=CC(=O)N1CC[C@H](n2c(=O)cnc3cnc(Nc4ccc(N5CCN(C)CC5)cc4OC)nc32)C1` [Compound 1], the IC50 in series [1] came to 251 nM; in series [2], 129 nM; in series [3], 12.2 µM; in series [4] it was 13.8 µM. Also, in series [5], the solubility is 1280 µg/mL (≈ 2610 µM).

(Values after patent US11306095B2 (EAST CHINA UNIVERSITY OF SCIENCE AND TECHNOLOGY, priority 2015, dated 2022).)
